Measured values: US20100036088A1, “Selective poly-N-substituted glycine antibiotics” (priority 2008, published 2010)
Read-outs that look alike come from different tables or passages of the source. Square brackets hold non-standard residues; d marks the D form. Peptide text beside a SMILES is read from it. Gly(N-CH2CH2-imidazol-4-yl) = O=C(O)CNCCc1c[nH]cn1; Nspe = C[C@H](NCC(=O)O)c1ccccc1; Nlys = NCCCCNCC(=O)O

Assays:
human erythrocytes = experiment: Hemolysis assay; type: cell-based
Method: Hemolysis assays. Erythrocytes were isolated from freshly drawn, heparanized human blood and resuspended to 20 vol % in PBS (pH 7.4). In a 96-well microtiter plate, 100 μL erythrocyte suspension was added to 100 μL peptoid solution in PBS (prepared by 1:2 serial dilutions), or 100 μL PBS in the case of negative controls. 100% hemolysis wells contained 100 μL blood cell suspension with 100 μL 0.2 vol % Triton X-100. The plate was incubated for 1 h at 37° C., then each well was diluted with 150 μL PBS. The plate was then centrifuged at 1200 g for 15 min, 100 μL of the supernatant from each well transferred to a fresh microtiter plate, and A350 measured.
Hemolysis assays. Erythrocytes were isolated from freshly drawn, heparanized human blood and resuspended in PBS (pH 7.4) to make a 20% volume suspension. Peptoid solutions were prepared by serial dilution (2:1) in a 96-well microtiter plate. For test wells, 100 μL of erythrocyte suspension was added to 100 μL of peptoid solution in PBS; PBS without peptoid was used as the negative control and 0.2 vol % Triton X-100 as the positive control that indicates 100% hemolysis. After 1 hour incubation at 37° C., each well was diluted with 150 μL PBS. Plates were then centrifuged at 1,200×g for 15 minutes to pellet the cells. 30 μL of the supernatant from each well were transferred to the corresponding well of a second 96-well plate that contains 70 μL PBS.

[1] = MTS assay, metabolic inhibition; type: cell-based, mouse
Method: (§1) The potencies of all compounds were determined against representative Gram-negative (E. coli ATCC 35218) and Gram-positive (B. subtilis ATCC 6633) biosafety level 1 (BSL1) organisms. In addition to hemolytic activity, the conventional measure of toxicity to mammalian cells, the effect of each ampetoid on NIH 3T3 mouse fibroblast cells was determined using the MTS tetrazolium salt-based calorimetric assay. While hemolysis measures the degree to which erythrocytes are lysed, the MTS assay indirectly quantifies the extent to which cellular metabolic activity is inhibited.
MTS assays. NIH/3T3 cells (ATCC Corporation) cultured at 37° C. and 5% CO2 in complete Dulbecco's modified eagle's media (CDMEM) supplemented with 1% sodium pyruvate, 1% penicillin-streptomycin, 1.5 g/L NaHCO3, and 10% fetal bovine serum. Cells were seeded at a density of 5,000 cells per well for NIH/3T3 cells in 96-well plates (100 μl total volume). A peptoid solution plate (100 μL total volume per well) was prepared by serial dilution of aqueous peptoid stock solution in Hank's balanced salt solution (HBSS) media. The day-old cell monolayers were washed with HBSS and media was replaced with 100 μL HBSS. The contents of the peptoid solution plate were transferred onto corresponding wells of the cell monolayer plate, and 40 μL MTS reagent (Promega, Inc.) was added to each well. After incubating for 3 hours at 37° C., absorbance at 490 nm was determined. […] The average of six replicates is reported.

B. subtilis (ATCC 6633) = type: cell-based; conditions: ATCC 6633
Method: (§2) Whereas the preceding generation of molecules was designed to elucidate structure function relationships of specific molecular parameters (chirality, length, hydrophobicity, etc.), another generation compounds were designed explicitly to explore effects on selectivity. Antimicrobial activity of these compounds was tested against bacterial strains E. coli (ATTC 35218) and B. subtilis (ATTC 6633) in cation-adjusted MHB using the microdilution protocols previously described. The sequences, antimicrobial activities, hemolytic activities, and metabolic inhibitory concentrations against NIH 3T3 mouse fibroblast cells are summarized in Table 3 and the rationale of their design is described below.
as §1
(§3) Screening antibacterial assays. MICs were determined in 96-well microtiter plates in accordance with CLSI M7-A6 protocols. Peptoid solutions with 50 μL total volume were prepared using 2:1 serial dilutions. 50 μL of bacteria inoculum (1×10^6 CFU/mL) prepared in cation-adjusted Mueller-Hinton broth (CAMHB) was added to test wells. Control wells contained 100 μL MHB (no growth) or 50 μL inoculums with 50 μL MHB with no peptoid. […] Reported values were reproducible over three experiments, each containing two parallel trials.

E. coli (ATCC 35218) = type: cell-based; conditions: ATCC 35218
Method: as §2, §1, §3

SMILES	HD10 (human erythrocytes)	HD50 (human erythrocytes)	IC50 [1]	B. subtilis MIC (B. subtilis (ATCC 6633))	E. coli MIC (E. coli (ATCC 35218))	HD10 (human erythrocytes; Table 6)	HD50 (human erythrocytes; Table 6)	IC50 ([1]; Table 6, NIH 3T3 mouse fibroblast cells)	B. subtilis MIC (B. subtilis (ATCC 6633); Table 6)	E. coli MIC (E. coli (ATCC 35218); Table 6)
C[C@H](NCC(=O)N(CCCCN)CC(=O)N(CC(=O)N(CCCCN)CC(=O)N(CCCCN)CC(=O)N(CC(=O)N(CC(=O)N(CCCCN)CC(=O)N(CC(=O)N(CCCCN)CC(=O)N(CCCCN)CC(=O)N(CC(N)=O)[C@@H](C)c1ccccc1)[C@@H](C)c1ccccc1)[C@@H](C)c1ccccc1)[C@@H](C)c1ccccc1)[C@@H](C)c1ccccc1)c1ccccc1 [1B-Nlys4,10, H-(Nspe-Nlys-Nspe-Nlys-Nlys-Nspe)2-NH2] (H-[Nspe][Nlys][Nspe][Nlys][Nlys][Nspe][Nspe][Nlys][Nspe][Nlys][Nlys][Nspe]-NH2)	>200/>200 μM	>200/>200 μM	83 µM	0.78 µM	50 µM					
C[C@H](NCC(=O)N(CCCCN)CC(=O)N(CC(=O)N(CCCCN)CC(=O)N(CCCCN)CC(=O)N(CCCCN)CC(=O)N(CC(=O)N(CCCCN)CC(=O)N(CC(=O)N(CCCCN)CC(=O)N(CCCCN)CC(=O)N(CC(N)=O)[C@@H](C)c1ccccc1)[C@@H](C)c1ccccc1)[C@@H](C)c1ccccc1)[C@@H](C)c1ccccc1)c1ccccc1 [1B-Nlys4,6,10, H-(Nspe-Nlys)2-Nlys2-(Nspe-Nlys)2-Nlys-Nspe)-NH2] (H-[Nspe][Nlys][Nspe][Nlys][Nlys][Nlys][Nspe][Nlys][Nspe][Nlys][Nlys][Nspe]-NH2)			> 100 µM	1.6 µM	>100 µM					
C[C@@H](c1ccccc1)N(CC(N)=O)C(=O)CN(C(=O)CN(CCCCN)C(=O)CN(C(=O)CN(C(=O)CN(CCCCN)C(=O)CN(C(=O)CN(C(=O)CN(CCCCN)C(=O)[C@@H]1CCCN1C(=O)CN(C(=O)CNCCCCN)[C@@H](C)c1ccccc1)[C@@H](C)c1ccccc1)[C@@H](C)c1ccccc1)[C@@H](C)c1ccccc1)[C@@H](C)c1ccccc1)[C@@H](C)c1ccccc1 [1-Pro3, H-Nlys-Nspe-L-Pro-(Nlys-Nspe-Nspe)3-NH2] (H-[Nlys][Nspe]P[Nlys][Nspe][Nspe][Nlys][Nspe][Nspe][Nlys][Nspe][Nspe]-NH2)	74 µM	> 200 µM	12 µM	1.6 µM	12.5 µM					
C[C@@H](c1ccccc1)N(CC(N)=O)C(=O)CN(C(=O)CN(CCCCN)C(=O)[C@@H]1CCCN1C(=O)CN(C(=O)CN(CCCCN)C(=O)CN(C(=O)CN(C(=O)CN(CCCCN)C(=O)[C@@H]1CCCN1C(=O)CN(C(=O)CNCCCCN)[C@@H](C)c1ccccc1)[C@@H](C)c1ccccc1)[C@@H](C)c1ccccc1)[C@@H](C)c1ccccc1)[C@@H](C)c1ccccc1 [1-Pro3,9, H-(Nlys-Nspe-L-Pro-Nlys-Nspe-Nspe)2-NH2] (H-[Nlys][Nspe]P[Nlys][Nspe][Nspe][Nlys][Nspe]P[Nlys][Nspe][Nspe]-NH2)	>200/>200 μM	>200/>200 μM	71 µM	1.6 µM	50 µM					
C[C@H](NCC(=O)N(CC(=O)N(CCCCN)CC(=O)N(CC(=O)N(CC(=O)N(CCCCN)CC(=O)N(CC(=O)N(CC(=O)N(CCCCN)CC(=O)N(CC(=O)N(CC(=O)N(CCCCN)CC(N)=O)[C@@H](C)c1ccccc1)[C@@H](C)c1ccccc1)[C@@H](C)c1ccccc1)[C@@H](C)c1ccccc1)[C@@H](C)c1ccccc1)[C@@H](C)c1ccccc1)[C@@H](C)c1ccccc1)c1ccccc1 [1C, H-(Nspe-Nspe-Nlys)4-NH2] (H-[Nspe][Nspe][Nlys][Nspe][Nspe][Nlys][Nspe][Nspe][Nlys][Nspe][Nspe][Nlys]-NH2)	25 µM	> 100 µM	5.6 µM	1.6 µM	6.3 µM					
C[C@@H](c1ccccc1)N(CC(N)=O)C(=O)CN(CCCCN)C(=O)CN(CCCCN)C(=O)CN(C(=O)CN(C(=O)CN(CCCCN)C(=O)CN(C(=O)CN(CCCCN)C(=O)CN(CCCCN)C(=O)CN(C(=O)CN(C(=O)CNCCCCN)[C@@H](C)c1ccccc1)[C@@H](C)c1ccccc1)[C@@H](C)c1ccccc1)[C@@H](C)c1ccccc1)[C@@H](C)c1ccccc1 [1-Nlys5,11, H-(Nlys-Nspe-Nspe-Nlys-Nlys-Nspe)2-NH2] (H-[Nlys][Nspe][Nspe][Nlys][Nlys][Nspe][Nlys][Nspe][Nspe][Nlys][Nlys][Nspe]-NH2)	>100/>100 μM	>100/>100 μM	85 µM	1.6 µM	50 µM					
C[C@@H](c1ccccc1)N(CC(=O)N(CCCCN)CC(=O)N(CC(=O)N(CC(=O)N(CCCCN)CC(=O)N(CC(=O)N(CC(=O)N(CCCCN)CC(=O)N(CC(=O)N(CC(=O)N(CCCCN)CC(N)=O)[C@@H](C)c1ccccc1)[C@@H](C)c1ccccc1)[C@@H](C)c1ccccc1)[C@@H](C)c1ccccc1)[C@@H](C)c1ccccc1)[C@@H](C)c1ccccc1)C(=O)CN(C(=O)CNCCCCN)[C@@H](C)c1ccccc1 [113mer, H-(Nlys-Nspe-Nspe)4-Nlys-NH2] (H-[Nlys][Nspe][Nspe][Nlys][Nspe][Nspe][Nlys][Nspe][Nspe][Nlys][Nspe][Nspe][Nlys]-NH2)	21 µM	> 100 µM	5.6 µM	0.78 µM	3.1 µM					
C[C@H](c1ccccc1)N(CC(N)=O)C(=O)CN(C(=O)CN(CCCCN)C(=O)CN(C(=O)CN(C(=O)CN(CCCCN)C(=O)CN(C(=O)CN(C(=O)CN(CCCCN)C(=O)CN(C(=O)CN(C(=O)CNCCCCN)[C@@H](C)c1ccccc1)[C@H](C)c1ccccc1)[C@@H](C)c1ccccc1)[C@H](C)c1ccccc1)[C@@H](C)c1ccccc1)[C@H](C)c1ccccc1)[C@@H](C)c1ccccc1 [1-Nrpe3,6,9,12, H-(Nlys-Nspe-Nrpe)4-NH2]						16 µM	67 µM	3.8 µM	1.6 µM	6.3 µM
C[C@H](NCC(=O)N(CCCCN)CC(=O)N(CC(=O)N(CCCCN)CC(=O)N(CCCCN)CC(=O)N(CCCCN)CC(=O)N(CC(=O)N(CCCCN)CC(=O)N(CC(=O)N(CCCCN)CC(=O)N(CCCCN)CC(=O)N(CC(=O)N(CC(=O)N(CCCCN)CC(=O)N(CC(N)=O)[C@@H](C)c1ccccc1)[C@@H](C)c1ccccc1)[C@@H](C)c1ccccc1)[C@@H](C)c1ccccc1)[C@@H](C)c1ccccc1)[C@@H](C)c1ccccc1)c1ccccc1 [1B15mer-Nlys4,6,10, H-(Nspe-Nlys)2-Nlys2-(Nspe-Nlys)2-Nlys-Nspe2-Nlys-Nspe-NH2] (H-[Nspe][Nlys][Nspe][Nlys][Nlys][Nlys][Nspe][Nlys][Nspe][Nlys][Nlys][Nspe][Nspe][Nlys][Nspe]-NH2)			40 µM	0.78 µM	>100 µM					
C[C@@H](c1ccccc1)N(CC(=O)N(CCc1c[nH]cn1)CC(=O)N(CCCCN)CC(=O)N(CC(=O)N(CCc1c[nH]cn1)CC(=O)N(CCCCN)CC(=O)N(CC(=O)N(CCc1c[nH]cn1)CC(=O)N(CCCCN)CC(=O)N(CC(=O)N(CCc1c[nH]cn1)CC(N)=O)[C@@H](C)c1ccccc1)[C@@H](C)c1ccccc1)[C@@H](C)c1ccccc1)C(=O)CNCCCCN [1-Nhis3,6,9,12] (H-[Nlys][Nspe][Gly(N-CH2CH2-imidazol-4-yl)][Nlys][Nspe][Gly(N-CH2CH2-imidazol-4-yl)][Nlys][Nspe][Gly(N-CH2CH2-imidazol-4-yl)][Nlys][Nspe][Gly(N-CH2CH2-imidazol-4-yl)]-NH2)	>200/>200 μM	>200/>200 μM		100 µM	>100 µM					
